# From patent publication US20240294498A1, “FACTOR XIIA INHIBITORS” (Lunac Therapeutics Ltd, priority 2021, published 2024)
# Legend:
# Format in all cases: biochemical
# thrombin = target: T1, thrombin (Homo sapiens, UniProt P00734); test: Determination of selectivity: thrombin inhibition (chromogenic substrate GPR); details: fold selectivity for FXIIa over thrombin (human); category
# T1 construct: FXa (5 nM) and thrombin (5 nM)
# Procedure: (§1) The activities of the compounds of the invention have been determined in vitro using the following assays protocols for the screening of activity of FXIIa and other proteases. Each of these assays were performed in a purified system employing the use of chromogenic assays in microplate plate wells. Chromogenic peptide substrates mimicking natural protein substrates are attached via an amide bond to a chromogenic group. Paranitroaniline (pNA) is released from the peptide following catalyses by the proteolytic enzyme; the absorbance increases and can be monitored at 405 nm.
# (§2) All compounds were dissolved in 100% (v/v) DMSO to a stock concentration of 10 mM, the highest concentration of compound used in each assay is 500 μM. The final concentrations of DMSO were 5% (v/v) in 50 mM Tris 137 mM NaCl pH 7.4. Where no test compound was added a final concentration of 5% DMSO was employed.
# (§3) To determine selectivity of test compounds, these test compounds were assayed for inhibitory activity against other serine proteases including FXa and thrombin. Essentially compounds at increasing concentrations were incubated with each enzyme: FXa (5 nM) and thrombin (5 nM), for 10 mins at 37° C. followed by the appropriate chromogenic substrate, S2765 (Chromogenix) and GPR (Bachem) respectively in 50 mM Tris, 137 mM NaCl, pH 7.4. Substrates were used at a concentration equal to the appropriate experimentally derived KM. Kinetic readings at 405 nm were monitored every 12 secs for a total duration of 3 hours at 37° C. Gradients of initial rates were determined and employed to calculate IC50 values. Values of IC50 were converted to Ki values based on the formula:
# (§4) Ki═IC50/(1+[Substrate]/Km)
# (§5) Where [Substrate] denotes the concentration of substrate used in the assay and Km is the determined value of each enzyme with its own substrate.
# The fold selectivity for FXIIa over thrombin for the compounds of the invention has been categorised based on the fold selectivity values, the categories being “+”, “++” and “+++”. The category “+” refers to fold selectivity values less than 10 (e.g. a fold selectivity value of less than 10 and greater than 1). The category “++” refers to a fold selectivity value of 10 to 100. The category “+++” refers to fold selectivity values greater than 100.
# FXIIa = target: T2, FXIIa (Homo sapiens, UniProt P00748); test: Determination of Factor XIIa inhibition (chromogenic substrate S-2302); details: human FXIIa alpha, Ki category
# T2 construct: FXIIa alpha
# T2 sequence (P00748 373-615 limits assumed): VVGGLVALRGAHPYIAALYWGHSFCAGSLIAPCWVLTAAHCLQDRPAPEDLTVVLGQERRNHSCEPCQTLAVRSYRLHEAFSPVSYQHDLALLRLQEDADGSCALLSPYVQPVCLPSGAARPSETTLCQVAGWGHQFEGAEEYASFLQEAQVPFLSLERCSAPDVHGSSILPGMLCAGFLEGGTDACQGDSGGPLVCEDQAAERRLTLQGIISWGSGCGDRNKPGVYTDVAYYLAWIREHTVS
# T2 sequence (P00748 20-372 partner limits assumed): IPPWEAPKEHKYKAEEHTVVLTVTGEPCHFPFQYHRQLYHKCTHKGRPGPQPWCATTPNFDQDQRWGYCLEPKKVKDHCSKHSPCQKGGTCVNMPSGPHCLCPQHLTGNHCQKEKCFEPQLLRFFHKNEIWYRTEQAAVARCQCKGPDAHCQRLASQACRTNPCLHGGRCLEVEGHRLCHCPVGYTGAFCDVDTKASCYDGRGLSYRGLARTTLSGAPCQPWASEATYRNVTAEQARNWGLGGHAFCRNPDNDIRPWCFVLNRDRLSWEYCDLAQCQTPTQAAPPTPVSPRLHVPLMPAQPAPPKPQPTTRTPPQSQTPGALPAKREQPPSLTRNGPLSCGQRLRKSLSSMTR
# Procedure: as §1, §2
# Factor XIIa activity was measured using a chromogenic substrate S-2302 (Chromogenix). Various concentrations of compound were incubated with 10 nM of FXIIa and incubated at 37° C. for 10 minutes in 50 mM Tris, 137 mM NaCl, pH 7.4, prior to the addition of the chromogenic substrate S-2302 at a concentration equal the to the experimentally derived KM. Kinetic readings at 405 nm were monitored every 12 secs for a total duration of 3 hours at 37° C. Gradients of initial rates were determined and employed to calculate IC50 values.
# The activity of the compounds of the invention has been categorised based on the Ki values, the categories being “†”, “*”, “**” and “***”. […] The category “**” refers to compounds with a Ki value of 0.2 μM to 0.8 μM.
# as §4, §5
# FXa = FXa (Homo sapiens, UniProt P00742); test: Determination of selectivity: FXa inhibition (chromogenic substrate S2765); details: fold selectivity for FXIIa over FXa (human); category
# FXa, sequence (P00742 235-488 limits assumed): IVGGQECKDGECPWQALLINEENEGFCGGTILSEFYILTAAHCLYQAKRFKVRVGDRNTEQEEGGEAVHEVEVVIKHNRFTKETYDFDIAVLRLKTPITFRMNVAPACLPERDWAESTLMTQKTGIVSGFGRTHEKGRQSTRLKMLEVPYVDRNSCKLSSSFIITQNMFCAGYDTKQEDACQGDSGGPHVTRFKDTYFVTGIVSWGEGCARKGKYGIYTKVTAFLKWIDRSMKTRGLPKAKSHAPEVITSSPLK
# FXa, sequence (P00742 41-179 partner limits assumed): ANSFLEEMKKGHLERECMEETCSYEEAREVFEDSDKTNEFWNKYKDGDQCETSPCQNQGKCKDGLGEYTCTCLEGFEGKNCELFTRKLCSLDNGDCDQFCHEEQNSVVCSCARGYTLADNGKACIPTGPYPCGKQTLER
# Procedure: as §1, §2, §3, §4, §5
# The fold selectivity for FXIIa over FXa for the compounds of the invention has been categorised based on the fold selectivity values, the categories being “o”, “oo” and “ooo”. The category “o” refers to fold selectivity values less than 10 (e.g. a fold selectivity value of less than 10 and greater than 1). The category “oo” refers to a fold selectivity value of 10 to 100. The category “ooo” refers to fold selectivity values greater than 100.
SMILES,Ki (FXIIa),FXa (human)/FXIIa alpha (human) (FXa),Thrombin (human)/FXIIa alpha (human) (thrombin)
"Cc1ccc2c(c1)CCN2C1C[C@@H](C(=O)NCc2ccc3c(cnn3C)c2)N(C(=O)[C@@H]2NCCC[C@@H]2C(=O)N2CCCC2)C1 (single isomer, unassigned) [Example M05838]",200 to 800 nM,∘∘∘,+++ (fold selectivity values greater than 100)
"Cc1ccc(C=C2C[C@@H](C(=O)NCc3ccc4c(cnn4C)c3)N(C(=O)[C@@H]3NCCC[C@@H]3C(=O)N3CCCC3)C2)cc1 (single isomer, unassigned) [Example M05843]",200 to 800 nM,∘∘∘,+++ (fold selectivity values greater than 100)
"Cc1ccc(C=C2C[C@@H](C(=O)NCc3ccc4c(cnn4C)c3)N(C(=O)[C@@H]3NCCC[C@@H]3C(=O)N3CCCC3)C2)cc1 (single isomer, unassigned) [Example M05844]",800 to 5000 nM,∘∘,++ (a fold selectivity value of 10 to 100)
COc1ccc(C[C@@H]2C[C@@H](C(=O)NCc3cc4cnccc4[nH]3)N(C(=O)[C@@H]3NCCC[C@@H]3C(=O)N3CCCC3(C)C)C2)cc1 [Example M00467],< 200 nM,∘∘,+ (fold selectivity values less than 10 (e.g. a fold selectivity value of less than 10 and greater than 1))
COc1ccc(C[C@@H]2C[C@@H](C(=O)NCc3ccc4c(c3)nnn4C)N(C(=O)[C@@H]3NCCC[C@@H]3C(=O)N3CCCC3)C2)cc1 [Example M04490],< 200 nM,∘∘∘,+++ (fold selectivity values greater than 100)
"Cn1ncc2cc(CNC(=O)[C@@H]3C[C@@H](Cc4ccn(C5CC5)n4)CN3C(=O)[C@@H]3NCCC[C@@H]3C(=O)N3CCCC3)ccc21 [Example M05983, (2S,4S)-4-((1-cyclopropyl-1H-pyrazol-3-yl)methyl)-N-((1-methyl-1H-indazol-5-yl)methyl)-1-((2R,3S)-3-(pyrrolidine-1-carbonyl)piperidine-2-carbonyl)pyrrolidine-2-carboxamide]",800 to 5000 nM,∘∘∘,–
Cc1ccc(C[C@@H]2C[C@@H](C(=O)NCCCc3cnn(C)c3)N(C(=O)[C@@H]3NCCC[C@@H]3C(=O)N3CCC[C@@H]3C(F)(F)F)C2)cc1 [Example M06077],800 to 5000 nM,–,–

# The next lines start with results.
Ki (FXIIa),FXa (human)/FXIIa alpha (human) (FXa),SMILES,Thrombin (human)/FXIIa alpha (human) (thrombin)
200 to 800 nM,∘∘∘,"Cc1ccc2c(c1)CCN2C1C[C@@H](C(=O)NCc2ccc3c(cnn3C)c2)N(C(=O)[C@@H]2NCCC[C@@H]2C(=O)N2CCCC2)C1 (single isomer, unassigned) [Example M05839]",+++ (fold selectivity values greater than 100)
< 200 nM,∘∘∘,"Cc1ccc(C[C@@H]2C[C@@H](C(=O)NCc3ccc4c(cnn4C)c3)N(C(=O)[C@@H]3NCCC[C@@H]3C(=O)N(C)CCN(C)C)C2)cc1 (single isomer, unassigned) [Example M05902]",+++ (fold selectivity values greater than 100)
200 to 800 nM,∘∘∘,Cn1nnc2cc(CNC(=O)[C@@H]3C[C@@H](CC4CCC5(CC4)CC5)CN3C(=O)[C@@H]3NCCC[C@@H]3C(=O)N3CCCC3)ccc21 [Compound M06003],+++ (fold selectivity values greater than 100)
< 200 nM,∘∘∘,"COc1ccc(C[C@@H]2C[C@@H](C(=O)NCc3cc4cnccc4[nH]3)N(C(=O)[C@@H]3NCCC[C@@H]3C(=O)N3CCCC3)C2)cc1 [Example M00466, (2S,4R)-N-((1H-pyrrolo[3,2-c]pyridin-2-yl)methyl)-4-(4-mthoxybenzyl)-1-((2R,3S)-3-(pyrrolidine-1-carbonyl)piperidine-2-carbonyl)pyrrolidine-2-carboxamide]",+++ (fold selectivity values greater than 100)
< 200 nM,∘∘∘,"Cc1ccc(C[C@@H]2C[C@@H](C(=O)NCc3ccc4c(cnn4C)c3)N(C(=O)[C@@H]3NCCC[C@@H]3C(=O)N3CCCC3)C2)cc1 [Example M05675, (2S,4R)-N-((1-methyl-1H-indazol-5-yl)methyl)-4-(4-methylbenzyl)-1-((2R,3S)-3-(pyrrolidine-1-carbonyl)piperidine-2-carbonyl)pyrrolidine-2-carboxamide]",+++ (fold selectivity values greater than 100)
200 to 800 nM,∘∘∘,"Cc1ccc(C[C@@H]2C[C@@H](C(=O)NCc3cc4cncc(F)c4[nH]3)N(C(=O)[C@@H]3NCCC[C@@H]3C(=O)N3CCCC3)C2)cc1 [Example M05712, (2S,4R)-N-((7-fluoro-1H-pyrrolo[3,2-c]pyridin-2-yl)methyl)-4-(4-methylbenzyl)-1-((2R,3S)-3-(pyrrolidine-1-carbonyl)piperidine-2-carbonyl)pyrrolidine-2-carboxamide]",+++ (fold selectivity values greater than 100)
800 to 5000 nM,–,"Cc1ccc(C[C@@H]2C[C@@H](C(=O)NCc3ccn4c(C(F)F)nnc4c3)N(C(=O)[C@@H]3NCCC[C@@H]3C(=O)N3CCCC3)C2)cc1 [Example M05985, (2S,4R)-N-[[3-(difluoromethyl)-[1,2,4]triazolo[4,3-a]pyridin-7-yl]methyl]-4-(p-tolylmethyl)-1-[(2R,3S)-3-(pyrrolidine-1-carbonyl)piperidine-2-carbonyl]pyrrolidine-2-carboxamide]",–
800 to 5000 nM,∘∘∘,"Cn1nnc2cc(CNC(=O)[C@@H]3C[C@@H](Cc4ccc(C5(F)CC5)cc4)CN3C(=O)[C@@H]3NCCC[C@@H]3C(=O)N3CCCC3)ccc21 [Example M06068, (2S,4R)-4-[[4-(1-fluorocyclopropyl)phenyl]methyl]-N-[(1-methylbenzotriazol-5-yl)methyl]-1-[(2R,3S)-3-(pyrrolidine-1-carbonyl)piperidine-2-carbonyl]pyrrolidine-2-carboxamide]",–
200 to 800 nM,∘∘∘,"Cn1nnc2cc(CNC(=O)[C@@H]3C[C@@H](Cc4ccc(C5CC5)nc4)CN3C(=O)[C@@H]3NCCC[C@@H]3C(=O)N3CCC[C@@H]3C(F)(F)F)ccc21 [Example M06070, (2S,4R)-4-[(6-cyclopropyl-3-pyridyl)methyl]-N-[(1-methylbenzotriazol-5-yl)methyl]-1-[(2R,3S)-3-[(2R)-2-(trifluoromethyl)pyrrolidine-1-carbonyl]piperidine-2-carbonyl]pyrrolidine-2-carboxamide]",–
